Assay results as given in US20100105644A1, “BOTANICAL COMPOSITION FOR ENHANCED SKIN REPAIR AND USES THEREOF” (The Regents of the University of Michigan, priority 2008, published 2010).

Assays:
[1] = In vitro activities of purified 6-gingerol compared with the crude ginger extract; details: 6-gingerol purified to greater than 95%
From the text: The ginger root is also a source of multiple biologically active gingerol compounds, including 6-gingerol, 8-gingerol, 10-gingerol, 6-paradol, 6-shagoal and cassumunin. 6-gingerol is the most abundant analogue in the extract used here, and represents approximately 32% of the total extract. […] In addition, synthetic curcuminoids and synthetic gingerols are also available. One goal is to have a preparation that is inexpensive to prepare so that individuals at risk for non-healing skin ulcers can utilize it on a long-term basis as a wound preventative.

[2] = test system: skin of healthy hairless rats; experiment: Topical treatment of healthy hairless rats: gross appearance and irritation of the skin; type: in vivo, rat; details: topical once daily for 14 days, 10% curcumin and 3% ginger extract alone and in combination
Procedure: The botanicals were dissolved in a vehicle (70% ethanol and 30% propylene glycol) at 10.0% for curcumin and 3% for the ginger extract. The concentrations chosen for the two botanicals were based on results from preliminary in vitro studies and in vivo studies with healthy hairless rats.
Based on in vitro experiments in which a wide range of concentrations of both curcumin and the ginger extract were tested, healthy hairless rats were treated topically once daily for 14 days with solutions containing 10% curcumin and 3% ginger extract, alone and in combination. Control rats were treated with vehicle alone. Animals were monitored closely during the treatment period of any visible changes in gross appearance of the skin. […] At the end of the treatment period, skin from the treated site of each animal was obtained. The skin was incubated in organ culture for 3 days.

type I collagen [3] = experiment: Soluble type I collagen (Western blot) in organ culture fluid of skin from topically treated healthy hairless rats; type: in vivo, rat; details: 10% curcumin / 3% ginger extract topical, skin in organ culture 3 days, compared to control skin
Procedure: (§1) Wounding was performed under sterile conditions in a laminar flow hood. Wound size was determined daily by measuring the X-axis and Y-axis of the scabbed wound and calculating the area of the remaining scab. At the time of wound closure, animals were sacrificed and duplicate 6 mm skin punches were collected from wounded and healed skin. One biopsy was fixed in 10% buffered formalin and used for histological analysis. The other biopsy was put in organ culture for 3 days. Briefly, the skin was cut into pieces of approximately 2 mm on a side, and four-five such pieces were incubated for 3 days in 0.5 mL of a culture medium consisting of growth factor-free, serum-free, Keratinocyte Basal Medium (KBM) (Lonza, Walkersville, Md.). Before use, the culture medium was supplemented with Ca^2+ to a final concentration of 1.4 mM. At the end of the 3-day incubation period, the organ culture fluid was collected and assayed for soluble type I collagen by western blotting and MMP-2 and -9 gelatin zymography (see below).

MMP-9 [4] = experiment: MMP-9 (gelatin zymography) in organ culture fluid of skin from topically treated healthy hairless rats; type: in vivo, rat; details: 10% curcumin / 3% ginger extract topical, skin in organ culture 3 days, compared to control skin
Procedure: as §1
(§2) Analysis of Metalloproteinases: MMP-2 and MMP-9: Gelatin-embedded enzymography (zymography) was used to assess levels of latent and active MMP-2 and MMP-9 in organ culture fluids. SDS-PAGE gels were prepared with the incorporation of gelatin (1 mg/mL) at the time of casting.

MMP-2 [5] = experiment: MMP-2 (gelatin zymography) in organ culture fluid of skin from topically treated healthy hairless rats; type: in vivo, rat; details: 10% curcumin / 3% ginger extract topical, skin in organ culture 3 days, compared to control skin
Procedure: as §1, §2

[6] = test system: abrasion wounds in skin of corticosteroid-treated hairless rats; experiment: Abrasion wound healing in corticosteroid-treated hairless rats; type: in vivo, rat; details: 21 days pretreatment, then 15 days with Temovate; 10% curcumin, 3% ginger extract; compared to Temovate plus vehicle alone
Procedure: Rat Model: Hairless rats were treated for 21 days topically over the back and flank with 500 μL of solutions containing 10% curcumin, 3% ginger extract or the combination of the two. Vehicle alone served as control. During the treatment phase, animals were examined daily for changes in the gross appearance of the skin. After the initial 21-day pretreatment period, rats were treated with Temovate® (clobetasol propionate) cream along with the botanicals for an additional 15 day period. Temovate® (0.05% solution of clobetasol propionate in cream base) was obtained from Glaxo Smith Kline (Philadelphia, Pa.). Temovate® was applied in the morning and botanicals were applied in the evening. At the end of the treatment period, abrasion wounding was performed. […] A pre-measured circular area, approximately 6 cm in diameter, was scrubbed with a stiff-nylon bristle brush lightly wetted with acetone and concomitantly abraded with a piece of course sanding sponge. […]
Wounding was performed under sterile conditions in a laminar flow hood. Wound size was determined daily by measuring the X-axis and Y-axis of the scabbed wound and calculating the area of the remaining scab. […]
Statistical Analysis: Data were analyzed using one-way analysis of variance (ANOVA) followed by the Bonferroni posttest for selected pairs (GraphPad Prism version 4.00 for Windows, GraphPad Software, San Diego, Calif.). […]

type I collagen [7] = experiment: Soluble type I collagen (Western blot) in organ culture fluid of healed wound skin, Temovate rat model; type: in vivo
Procedure: Wounding was performed under sterile conditions in a laminar flow hood. Wound size was determined daily by measuring the X-axis and Y-axis of the scabbed wound and calculating the area of the remaining scab. At the time of wound closure, animals were sacrificed and duplicate 6 mm skin punches were collected from wounded and healed skin. One biopsy was fixed in 10% buffered formalin and used for histological analysis. The other biopsy was put in organ culture for 3 days. […]
Analysis of Type I Collagen: Organ culture fluids were assayed for type I collagen by Western blot analysis. Briefly, organ culture fluids representing an equal quantity of protein were resolved using 8% SDS-PAGE under non-reducing conditions and transferred to nitrocellulose membranes. […] The membranes were then washed with TTBS and bound antibody was detected using the Phototope-HRP western detection kit (Cell Signaling Technologies, Inc., Danvers, Mass.). Images were scanned, digitized, and quantified using NIH image analysis software.
At the time of wound closure, skin from the center of the initial wound (most recently healed skin) was obtained and incubated in organ culture for three days. Organ culture fluids were collected at the end of the incubation period and analyzed for type I collagen and MMP-2/MMP-9. […]

MMP-2 [8] = experiment: MMP-2 (gelatin zymography) in organ culture fluid of healed wound skin, Temovate rat model; type: in vivo; details: botanical treatment of Temovate-treated rats
Procedure: as §1, with “At the end of the 3-day incubation period, the organ culture fluid was collected and assayed for soluble type I collagen by western blotting and MMP-2 and -9 gelatin zymography (see below).” left out
(§3) Analysis of Metalloproteinases: MMP-2 and MMP-9: Gelatin-embedded enzymography (zymography) was used to assess levels of latent and active MMP-2 and MMP-9 in organ culture fluids. […] After electrophoresis under non-reducing conditions to separate proteins and overnight incubation to allow for substrate digestion, zones of hydrolysis were identified as “holes” in the stained gels and quantified. Values for latent and active MMPs-2 and -9 bands were obtained following digitization and quantification. […]

MMP-9 [9] = experiment: MMP-9 (gelatin zymography) in organ culture fluid of healed wound skin, Temovate rat model; type: in vivo; details: botanical treatment of Temovate-treated rats
Procedure: as §1, with “At the end of the 3-day incubation period, the organ culture fluid was collected and assayed for soluble type I collagen by western blotting and MMP-2 and -9 gelatin zymography (see below).” left out
as §3

MMP-1 [10] = experiment: MMP-1 levels in human skin organ culture fluid; type: cell-based; details: increasing amounts of curcumin added to 1 μg per mL ginger extract
Procedure: Human skin was incubated in organ culture under control conditions (Ca^2+-supplemented KBM culture medium) or in the same culture medium with 1 μg per mL ginger extract. Increasing amounts of curcumin were added. […] Human skin was incubated in organ culture under control conditions (Ca^2+-supplemented KBM culture medium) or in the same culture medium with 1 μg per mL ginger extract. Increasing amounts of curcumin were added.

MMP-1 [11] = experiment: MMP-1 levels in human dermal fibroblast culture fluid; type: cell-based; details: increasing amounts of curcumin added to 1 μg per mL ginger extract
Procedure: Fibroblasts were incubated under control conditions (Ca^2+-supplemented KBM culture medium) or in the same culture medium supplemented with 1 μg per mL ginger extract. Increasing amounts of curcumin (X-axis) were added. […] Fibroblasts were incubated under control conditions (Ca^2+—supplemented KBM culture medium) or in the same culture medium supplemented with 1 μg per mL ginger extract. Increasing amounts of curcumin were added.

epidermal keratinocytes = experiment: Epidermal keratinocyte proliferation
From the text: There are several surprising and unexpected ways in which the combination of curcumin and 6-gingerol functions. First, these compounds promote collagen building in combination. On one hand, the ginger compound serves to raise the level of collagen-degrading enzymes, such as matrix metalloproteinases (MMPs), as one of its functions. On the other hand, the curcumin compound suppresses the MMP elevation stimulated by the ginger compound. Second, the combination promotes vascularization. During wound healing there is the need for new vascularization. However, new vessel growth needs to halt at some point and some vessels need to regress at a time when the wounded skin is fully healed. The ginger compound stimulates new vessel formation and the combination of curcumin and ginger extract result in a reduction in the number of capillaries in the skin at the end of the wound healing. This allows the skin to return to quiescence. Third, the combination promotes epidermal proliferation. Skin irritation is intimately associated with epidermal hyperplasia. The ginger compound stimulates epidermal keratinocyte proliferation while the curcumin compound suppresses ginger extract-induced keratinocyte growth. This may be the underlying factor responsible for the absence of irritation by the combination, for example, as compared to irritation observed with retinoid therapy. […]

| SMILES | in vitro activities compared with the crude extract [1] | skin irritation [2] | soluble type I collagen in organ culture fluid (type I collagen [3]) | MMP-9 in organ culture fluid (MMP-9 [4]) | MMP-2 in organ culture fluid (MMP-2 [5]) | wound closure (percent of wound healed) [6] | type I collagen in organ culture fluid (type I collagen [7]; botanicals prior to and during Temovate treatment, compared to rats treated with Temovate and vehicle) | type I collagen in organ culture fluid (type I collagen [7]; treatment along with Temovate, compared to control culture fluids from rats not exposed to Temovate) | MMP-2 level in organ culture fluid (MMP-2 [8]) | MMP-9 level in organ culture fluid (MMP-9 [9]) | ginger extract-induced MMP-1 expression in human skin organ culture fluid (MMP-1 [10]) | ginger extract-induced MMP-1 expression in fibroblast culture fluid (MMP-1 [11]) | ginger extract-induced keratinocyte growth (epidermal keratinocytes) |
| --- | --- | --- | --- | --- | --- | --- | --- | --- | --- | --- | --- | --- | --- |
| CCCCCC(O)CC(=O)CCc1ccc(OC)c(O)c1 (stereo not shown) [6-gingerol, 5-hydroxy-1-(3-hydroxy-4-methoxyphenyl)decan-3-one] | same in vitro activities as the crude extract itself | – | – | – | – | – | – | – | – | – | – | – | – |
| COc1cc(/C=C/C(=O)CC(=O)/C=C/c2ccc(O)c(OC)c2)ccc1O [curcumin, (1E,6E)-1,7-bis(4-hydroxy-3-methoxyphenyl)hepta-1,6-diene-3,5-dione] | – | No irritation | increased | decreased | decrease | improved | elevated | higher | reduced | reduced | inhibited | inhibited | suppresses |
